Results: paper PMC5384110 (European journal of medicinal chemistry, 2017)

Key:
Format in all cases: biochemical, HIV-1
[1] = biological target: HIV integrase strand transfer (INST) (Human immunodeficiency virus type 1 group M subtype B, UniProt P04585); assay: INST assay
HIV RT pol = HIV RT pol (Human immunodeficiency virus type 1 group M subtype B, UniProt P04585); assay: RT pol assay; conditions: Table 1; mean ± SD, at least two independent experiments
RT mutant K103N = RT mutant K103N (Human immunodeficiency virus type 1 group M subtype B, UniProt P04585, K690N); assay: RT pol assay against RT mutant K103N
RT mutant Y181C = RT mutant Y181C (Human immunodeficiency virus type 1 group M subtype B, UniProt P04585, Y768C); assay: RT pol assay against RT mutant Y181C
HIV RT RNase H = HIV RT RNase H (Human immunodeficiency virus type 1 group M subtype B, UniProt P04585); assay: RNase H assay; conditions: read-out: RT IC50 RNH; Table 2; 3-deoxy precursor 11; tested up to 10 μM

| SMILES | IC50 [1] | also measured |
| --- | --- | --- |
| Cc1c(CC2CCCCC2)n(COCc2ccccc2)c(=O)n(O)c1=O [4i, 1-((Benzyloxy)methyl)-6-(cyclohexylmethyl)-3-hydroxy-5-methylpyrimidine-2,4(1H,3H)-dione] | > 100 µM |  |
| CCc1c(CC2CCCCC2)n(COCc2ccc(F)c(F)c2)c(=O)n(O)c1=O [4f, 6-(Cyclohexylmethyl)-1-(((3,4-difluorobenzyl)oxy)methyl)-5-ethyl-3-hydroxypyrimidine-2,4(1H,3H)-dione] | > 100 µM | RT IC50 Pol (HIV RT pol): did not inhibit RT pol |
| CCc1c(CC2CCCCC2)n(COCc2ccc(C(F)(F)F)cc2)c(=O)n(O)c1=O [4g, 6-(Cyclohexylmethyl)-5-ethyl-3-hydroxy-1-(((4-(trifluoromethyl)benzyl)oxy)methyl)pyrimidine-2,4(1H,3H)-dione] | > 100 µM |  |
| CC(C)c1c(CC2CCCCC2)n(COCc2ccc(F)cc2)c(=O)n(O)c1=O [4b, 6-(Cyclohexylmethyl)-1-(((4-fluorobenzyl)oxy)methyl)-3-hydroxy-5-isopropylpyrimidine-2,4(1H,3H)-dione] | > 100 µM |  |
| CCc1c(CC2CCCCC2)n(COCc2ccc(F)cc2)c(=O)n(O)c1=O [4d, 6-(Cyclohexylmethyl)-5-ethyl-1-(((4-fluorobenzyl)oxy)methyl)-3-hydroxypyrimidine-2,4(1H,3H)-dione] | > 100 µM |  |
| Cc1c(CC2CCCCC2)n(COCCc2ccc(F)cc2)c(=O)n(O)c1=O [4m, 6-(Cyclohexylmethyl)-1-((4-fluorophenethoxy)methyl)-3-hydroxy-5-methyl pyrimidine-2,4(1H,3H)-dione] | > 100 µM |  |
| Cc1c(CC2CCCCC2)n(COCc2cccc(Cl)c2F)c(=O)n(O)c1=O [4j, 1-(((3-Chloro-2-fluorobenzyl)oxy)methyl)-6-(cyclohexylmethyl)-3-hydroxy-5-methylpyrimidine-2,4(1H,3H)-dione] | > 100 µM |  |
| CC(C)c1c(CC2CCCCC2)n(COCc2ccccc2)c(=O)n(O)c1=O [4a, 1-((Benzyloxy)methyl)-6-(cyclohexylmethyl)-3-hydroxy-5-isopropylpyrimidine-2,4(1H,3H)-dione] | > 100 µM | IC50 (RT mutant K103N): > 10 µM; IC50 (RT mutant Y181C): > 10 µM |
| CCc1c(CC2CCCCC2)n(COCc2cccc(Cl)c2F)c(=O)n(O)c1=O [4e, 1-(((3-Chloro-2-fluorobenzyl)oxy)methyl)-6-(cyclohexylmethyl)-5-ethyl-3-hydroxypyrimidine-2,4(1H,3H)-dione] | > 100 µM |  |
| CC(C)c1c(Cc2ccccc2)n(COCc2ccccc2)c(=O)[nH]c1=O [compound 14, TNK-651] |  | IC50 (HIV RT RNase H): > 10 µM |
| Cc1c(CC2CCCCC2)n(COCc2ccc(F)c(F)c2)c(=O)n(O)c1=O [4k, 6-(Cyclohexylmethyl)-1-(((3,4-difluorobenzyl)oxy)methyl)-3-hydroxy-5-methyl pyrimidine-2,4(1H,3H)-dione] | > 100 µM |  |
| Cc1c(CC2CCCCC2)n(COCc2ccc(C(F)(F)F)cc2)c(=O)n(O)c1=O [4l, 6-(Cyclohexylmethyl)-3-hydroxy-5-methyl-1-(((4-(trifluoromethyl)benzyl)oxy)methyl)pyrimidine-2,4(1H,3H)-dione] | > 100 µM |  |
| CCc1c(CC2CCCCC2)n(COCc2ccc(C)cc2)c(=O)n(O)c1=O [4h, 6-(Cyclohexylmethyl)-5-ethyl-3-hydroxy-1-(((4-methylbenzyl)oxy)methyl) pyrimidine-2,4(1H,3H)-dione] | > 100 µM |  |
| CCc1c(CC2CCCCC2)n(COCc2ccccc2)c(=O)n(O)c1=O [4c, 1-((Benzyloxy)methyl)-6-(cyclohexylmethyl)-5-ethyl-3-hydroxypyrimidine-2,4(1H,3H)-dione] | > 100 µM |  |
